Experimental data reported in US10479795B2 (Incyte Corporation, priority 2016, dated 2019).
Counter-ions that a name gives are not always drawn. Like-named read-outs stand apart in the source and are kept apart here.

Columns and labels:
[1] = tested on: Phosphorylated Ribosomal Protein S6 (RPS6); assay: THP-1 RPS6 ELISA Assay; type: cell-based, Human; settings: THP-1 cells, read-out: PI3Kγ_THP1_RPS6_ELISA IC50
Outline: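 IC50 values come from a curve of percent inhibition against log compound concentration, using phospho-RPS6 ELISA (450 nm) on THP-1 lysates. Cells were serum-starved overnight, exposed to compound for 2 h at 37 °C, then challenged 15 min with 10 nM MCP-1.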

[2] = biological target: PI3Kγ (p110γ) Recombinant Human Protein (Homo sapiens (Human), UniProt P48736); assay: PI3K-γ Scintillation Proximity Assay; type: biochemical; settings: read-out: PI3Kγ IC50
Sequence of PI3Kγ (p110γ) Recombinant Human Protein (P48736 whole entry): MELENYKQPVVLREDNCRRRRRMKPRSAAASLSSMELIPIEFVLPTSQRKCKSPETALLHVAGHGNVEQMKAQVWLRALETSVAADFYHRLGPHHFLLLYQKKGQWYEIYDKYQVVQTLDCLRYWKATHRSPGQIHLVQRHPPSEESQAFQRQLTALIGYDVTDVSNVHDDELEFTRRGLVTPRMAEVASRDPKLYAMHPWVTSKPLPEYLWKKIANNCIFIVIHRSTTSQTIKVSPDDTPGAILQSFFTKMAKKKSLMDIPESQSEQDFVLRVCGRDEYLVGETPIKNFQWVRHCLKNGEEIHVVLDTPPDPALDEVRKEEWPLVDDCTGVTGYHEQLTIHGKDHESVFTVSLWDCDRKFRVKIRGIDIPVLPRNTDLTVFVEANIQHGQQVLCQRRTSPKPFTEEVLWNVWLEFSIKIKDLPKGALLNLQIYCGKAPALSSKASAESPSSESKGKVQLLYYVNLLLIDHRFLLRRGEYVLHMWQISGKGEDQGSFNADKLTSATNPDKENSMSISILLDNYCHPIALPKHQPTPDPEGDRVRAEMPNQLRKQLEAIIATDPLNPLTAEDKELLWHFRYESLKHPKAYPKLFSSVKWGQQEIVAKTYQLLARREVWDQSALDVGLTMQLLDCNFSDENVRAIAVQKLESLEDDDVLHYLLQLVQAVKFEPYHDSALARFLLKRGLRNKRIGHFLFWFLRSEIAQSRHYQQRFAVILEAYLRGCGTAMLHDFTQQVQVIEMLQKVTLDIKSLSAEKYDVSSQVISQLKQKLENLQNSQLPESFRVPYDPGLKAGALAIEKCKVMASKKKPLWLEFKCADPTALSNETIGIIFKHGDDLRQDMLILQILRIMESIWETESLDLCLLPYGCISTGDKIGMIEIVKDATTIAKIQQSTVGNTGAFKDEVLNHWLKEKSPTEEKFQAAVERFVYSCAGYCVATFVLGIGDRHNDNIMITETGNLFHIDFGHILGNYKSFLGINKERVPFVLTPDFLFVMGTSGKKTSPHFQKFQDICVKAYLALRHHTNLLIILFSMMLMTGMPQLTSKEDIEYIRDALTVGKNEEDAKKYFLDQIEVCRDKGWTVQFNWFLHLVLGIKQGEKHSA
Outline: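 Radiometric SPA readout: […] bound to WGA beads after overnight shaking, IC50 derived from % activity of DMSO control. Reaction used human p110γ, 2 μM ATP, 20 μM PIP2, pH 6.7 MOPS buffer with MgCl2, DTT, CHAPS, 2% DMSO, room temperature.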

[3] = biological target: PI3Kδ (p110δ/p85α) Recombinant Human Protein (Homo sapiens (Human), UniProt O00329); assay: PI3Kδ Scintillation Proximity Assay; type: biochemical
Sequence of PI3Kδ (p110δ/p85α) Recombinant Human Protein (O00329 whole entry): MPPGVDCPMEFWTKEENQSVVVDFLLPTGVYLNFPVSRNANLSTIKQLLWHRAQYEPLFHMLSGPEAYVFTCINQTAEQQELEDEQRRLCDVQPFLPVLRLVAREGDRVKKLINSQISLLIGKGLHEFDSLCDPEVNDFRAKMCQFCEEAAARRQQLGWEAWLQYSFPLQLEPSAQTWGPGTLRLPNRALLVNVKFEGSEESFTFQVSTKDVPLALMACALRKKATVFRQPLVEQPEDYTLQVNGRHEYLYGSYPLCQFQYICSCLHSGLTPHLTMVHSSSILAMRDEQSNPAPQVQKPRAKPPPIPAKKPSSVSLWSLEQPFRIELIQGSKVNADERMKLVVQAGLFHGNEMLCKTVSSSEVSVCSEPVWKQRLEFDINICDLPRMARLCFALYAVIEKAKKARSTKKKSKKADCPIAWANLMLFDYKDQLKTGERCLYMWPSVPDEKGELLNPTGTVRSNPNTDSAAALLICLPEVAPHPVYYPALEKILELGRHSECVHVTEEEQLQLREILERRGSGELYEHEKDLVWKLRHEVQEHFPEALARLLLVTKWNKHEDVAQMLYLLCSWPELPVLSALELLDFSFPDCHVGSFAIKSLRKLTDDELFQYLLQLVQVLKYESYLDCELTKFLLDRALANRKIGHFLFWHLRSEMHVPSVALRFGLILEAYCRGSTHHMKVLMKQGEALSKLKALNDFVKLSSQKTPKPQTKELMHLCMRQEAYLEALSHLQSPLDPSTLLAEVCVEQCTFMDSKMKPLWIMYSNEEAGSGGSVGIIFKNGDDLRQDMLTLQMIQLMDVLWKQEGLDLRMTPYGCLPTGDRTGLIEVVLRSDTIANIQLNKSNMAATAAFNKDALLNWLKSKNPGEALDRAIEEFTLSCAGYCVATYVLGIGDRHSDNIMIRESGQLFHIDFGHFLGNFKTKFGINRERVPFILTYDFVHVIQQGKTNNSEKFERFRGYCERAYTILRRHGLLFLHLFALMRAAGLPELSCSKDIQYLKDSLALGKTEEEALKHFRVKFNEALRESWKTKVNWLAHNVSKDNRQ
Sequence of PI3Kδ (p110δ/p85α) Recombinant Human Protein (P27986 whole entry partner): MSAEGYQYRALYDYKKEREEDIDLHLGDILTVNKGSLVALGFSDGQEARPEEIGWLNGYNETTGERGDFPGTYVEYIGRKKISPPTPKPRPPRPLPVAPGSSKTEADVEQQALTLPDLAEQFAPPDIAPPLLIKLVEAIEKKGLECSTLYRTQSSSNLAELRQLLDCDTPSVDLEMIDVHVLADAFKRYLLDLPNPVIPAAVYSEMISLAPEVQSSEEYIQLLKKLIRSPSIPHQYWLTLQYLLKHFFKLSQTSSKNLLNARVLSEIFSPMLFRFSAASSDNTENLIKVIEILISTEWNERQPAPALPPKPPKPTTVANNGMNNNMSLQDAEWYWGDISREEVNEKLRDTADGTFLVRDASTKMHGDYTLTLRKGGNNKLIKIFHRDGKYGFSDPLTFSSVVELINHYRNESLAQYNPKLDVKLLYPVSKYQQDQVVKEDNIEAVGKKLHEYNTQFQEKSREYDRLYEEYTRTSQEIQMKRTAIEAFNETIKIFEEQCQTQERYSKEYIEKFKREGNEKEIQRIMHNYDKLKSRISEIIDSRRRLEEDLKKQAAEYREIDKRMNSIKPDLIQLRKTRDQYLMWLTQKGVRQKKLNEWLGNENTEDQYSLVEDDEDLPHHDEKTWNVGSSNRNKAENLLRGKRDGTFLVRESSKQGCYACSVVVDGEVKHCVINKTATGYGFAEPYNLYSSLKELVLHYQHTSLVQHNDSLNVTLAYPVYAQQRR
Outline: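 IC50 was fitted to percent solvent-control activity from SPA scintillation counts after WGA bead capture of 33P-labelled lipid product. Reaction: 120 min, room temperature, 3.4 nM p110δ/p85α, 20 μM PIP2, 2 μM ATP with tracer, MOPS pH 6.7 buffer containing MgCl2, DTT, CHAPS, 2% DMSO.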

Structure (SMILES)	IC50 ([1]; Homo sapiens) [nM]	IC50 [2] [nM]	IC50 [3] [nM]	IC50 [1] [nM]
COc1nc(CO)ccc1-c1cn2c(-c3cc(S(C)(=O)=O)ccc3C)cnc2c(N)n1 [Example 490, (5-(8-Amino-3-(2-methyl-5-(methylsulfonyl)phenyl)imidazo[1,2-a]pyrazin-6-yl)-6-methoxypyridin-2-yl)methanol trifluoroacetate]	< 100	< 100	100 to 500	
COc1cn[nH]c1-c1cn2c(-c3cc(S(C)(=O)=O)ccc3C)cnc2c(N)n1 [Example 491, 6-(4-Methoxy-1H-pyrazol-5-yl)-3-(2-methyl-5-(methylsulfonyl)phenyl)imidazo[1,2-a]pyrazin-8-amine trifluoroacetate]	100 to 500	< 100	100 to 500	
Cc1ccc(S(=O)(=O)CC2CCOCC2)cc1-c1cnc2c(N)ncnn12 [Example 492, 7-(2-Methyl-5-(((tetrahydro-2H-pyran-4-yl)methyl)sulfonyl)phenyl)imidazo[2,1-f][1,2,4]triazin-4-amine trifluoroacetate]	500 to 1000	< 100	500 to 2000	
Cc1ccc(S(=O)(=O)CCC(F)(F)F)cc1-c1cnc2c(N)ncnn12 [Example 493, 7-(2-Methyl-5-((3,3,3-trifluoropropyl)sulfonyl)phenyl)imidazo[2,1-f][1,2,4]triazin-4-amine trifluoroacetate]	> 1000	100 to 500	> 2000	
Cc1ccc(S(=O)(=O)CCC(C)O)cc1-c1cnc2c(N)nc(C(F)(F)F)cn12 (stereo not drawn) [Example 494, 4-((3-(8-Amino-6-(trifluoromethyl)imidazo[1,2-a]pyrazin-3-yl)-4-methylphenyl)sulfonyl)butan-2-ol]	> 1000	< 100	500 to 2000	
Cc1ccc(S(=O)(=O)CCC(C)(C)O)cc1-c1cnc2c(N)nc(C(F)(F)F)cn12 [Example 495, 4-((3-(8-Amino-6-(trifluoromethyl)imidazo[1,2-a]pyrazin-3-yl)-4-methylphenyl)sulfonyl)-2-methylbutan-2-ol]		< 100	500 to 2000	> 1000
Cc1ccc(S(=O)(=O)CC(C)O)cc1-c1cnc2c(N)nc(C(F)(F)F)cn12 (stereo not drawn) [Example 496, 1-((3-(8-Amino-6-(trifluoromethyl)imidazo[1,2-a]pyrazin-3-yl)-4-methylphenyl)sulfonyl)propan-2-ol trifluoroacetate]	500 to 1000	< 100	500 to 2000	
Cc1ccc(S(=O)(=O)CC2CC(F)(F)C2)cc1-c1cnc2c(N)ncnn12 [Example 500, 7-(5-(((3,3-Difluorocyclobutyl)methyl)sulfonyl)-2-methylphenyl)imidazo[2,1-f][1,2,4]triazin-4-amine]	100 to 500	< 100	500 to 2000	
COc1ncccc1-c1cn2c(-c3cc(S(=O)(=O)C(C)(C)C(C)O)ccc3C)cnc2c(N)n1 (stereo not drawn) [Example 502, 3-((3-(8-Amino-6-(2-methoxypyridin-3-yl)imidazo[1,2-a]pyrazin-3-yl)-4-methylphenyl)sulfonyl)-3-methylbutan-2-ol trifluoroacetate]	100 to 500	< 100	< 100	
Cc1ccc(S(=O)(=O)CC2(O)CCC2)cc1-c1cnc2c(N)nc(-c3ccncc3F)cn12 [Example 503, 1-(((3-(8-Amino-6-(3-fluoropyridin-4-yl)imidazo[1,2-a]pyrazin-3-yl)-4-methylphenyl)sulfonyl)methyl)cyclobutan-1-ol]	100 to 500	< 100	< 100	
Cc1ccc(S(=O)(=O)N[C@H]2CC[C@H](O)CC2)cc1-c1cnc2c(N)nc(C(C)C)cn12 [Example 504, 3-(8-Amino-6-isopropylimidazo[1,2-a]pyrazin-3-yl)-N-(trans-4-hydroxycyclohexyl)-4-methylbenzenesulfonamide]	< 100	< 100	< 100	
Cc1cn2c(-c3cc(S(=O)(=O)N[C@H]4CC[C@](C)(O)CC4)ccc3C)cnc2c(N)n1 [Example 505, 3-(8-Amino-6-methylimidazo[1,2-a]pyrazin-3-yl)-N-((1r,4r)-4-hydroxy-4-methylcyclohexyl)-4-methylbenzenesulfonamide]	100 to 500	< 100	< 100	
Cc1ccc(S(=O)(=O)N2CC[C@H](O)C2)cc1-c1cnc2c(N)nc(-c3ccc(CO)cc3F)cn12 [Example 506, (S)-1-((3-(8-Amino-6-(2-fluoro-4-(hydroxymethyl)phenyl)imidazo[1,2-a]pyrazin-3-yl)-4-methylphenyl)sulfonyl)pyrrolidin-3-ol]	< 100	< 100	< 100	
[2H][C@]1(NS(=O)(=O)c2ccc(C)c(-c3cnc4c(N)ncnn34)c2)CC[C@@](C)(O)CC1 [Example 507, 3-(4-Aminoimidazo[2,1-f][1,2,4]triazin-7-yl)-N-((1s,4s)-4-hydroxy-4-methylcyclohexyl-1-d)-4-methylbenzenesulfonamide]	500 to 1000	< 100	100 to 500	
[2H][C@]1(NS(=O)(=O)c2ccc(C)c(-c3cnc4c(N)ncnn34)c2)CC[C@](C)(O)CC1 [Example 508, 3-(4-Aminoimidazo[2,1-f][1,2,4]triazin-7-yl)-N-((1r,4r)-4-hydroxy-4-methylcyclohexyl-1-d)-4-methylbenzenesulfonamide trifluoroacetate]	500 to 1000	< 100	100 to 500	
CCOC(=O)C1CCCN(S(=O)(=O)c2ccc(C)c(-c3cnc4c(N)nc(C(F)(F)F)cn34)c2)C1 (stereo not drawn) [Example 509, Ethyl 1-((3-(8-amino-6-(trifluoromethyl)imidazo[1,2-a]pyrazin-3-yl)-4-methylphenyl)sulfonyl)piperidine-3-carboxylate]	> 1000	< 100	500 to 2000	
Cc1ccc(S(=O)(=O)N2CCCC(C(=O)O)C2)cc1-c1cnc2c(N)nc(C(F)(F)F)cn12 (stereo not drawn) [Example 510, 1-((3-(8-Amino-6-(trifluoromethyl)imidazo[1,2-a]pyrazin-3-yl)-4-methylphenyl)sulfonyl)piperidine-3-carboxylic acid trifluoroacetate]	> 1000	< 100	100 to 500	
Cc1ccc(S(=O)(=O)N2CCCC(CN)C2)cc1-c1cnc2c(N)nc(C(F)(F)F)cn12 (stereo not drawn) [Example 513, 3-(5-((3-(Aminomethyl)piperidin-1-yl)sulfonyl)-2-methylphenyl)-6-(trifluoromethyl)imidazo[1,2-a]pyrazin-8-amine trifluoroacetate]	100 to 500	< 100	100 to 500	
Cc1ccc(S(=O)(=O)N2CCCC(N)C2)cc1-c1cnc2c(N)nc(C(F)(F)F)cn12 (stereo not drawn) [Example 516, 3-(5-((3-Aminopiperidin-1-yl)sulfonyl)-2-methylphenyl)-6-(trifluoromethyl)imidazo[1,2-a]pyrazin-8-amine trifluoroacetate]	< 100	< 100	< 100	
Cc1ccc(S(=O)(=O)N[C@H]2CC[C@](C)(O)CC2)cc1-c1cnc2c(N)ccnn12 [Example 518, 3-(8-Aminoimidazo[1,2-b]pyridazin-3-yl)-N-((1r,4r)-4-hydroxy-4-methylcyclohexyl)-4-methylbenzenesulfonamide]	100 to 500	100 to 500	500 to 2000	
Cc1ccc(S(=O)(=O)NCC(C)(C)O)cc1-c1cnc2c(NCc3ccccc3)nc(C(F)(F)F)cn12 [Example 519, 3-(8-(Benzylamino)-6-(trifluoromethyl)imidazo[1,2-a]pyrazin-3-yl)-N-(2-hydroxy-2-methylpropyl)-4-methylbenzenesulfonamide]	> 1000	100 to 500	< 100	
